# Earlier results in patent publication US4666715A, “Antibiotic AM-5344-A2 substance and process for the production thereof” (Kitasato Institute, priority 1980, dated 1987).
# Assays:
# [1] = known antibiotics, literature
# [2] = tested on: Gram-positive bacterium; conditions: known antibiotics, literature
# [3] = known antibiotics, literature; remark: listed apart in the source
Compound,acidity (neutral) [1],effective to Gram-positive bacteria [2],fat solubility [3]
Cerulomycin,neutral,effective,
Mekemycin,neutral,effective,
COC(=O)c1cc2cc3cc4cc(CC(=O)O)c(C(=O)/C=C(\O)c5ccccc5O)c(OC)c4c(OC)c3c(O)c2c(=O)o1 [Thermorubin A],neutral,effective,
CO[C@H]1[C@@H](O)[C@@H](C)O[C@H](O[C@H]2[C@H](Oc3cccc4c(O)c5c(=O)oc6ccc(C)c7c(=O)oc(c34)c5c67)O[C@H](C)[C@H](O)[C@@H]2O)[C@@H]1O [Chartreusin],neutral,effective,fat-soluble
